In PMC10695737, “Crystal Modifications of a Cyclic Guanosine Phosphorothioate Analogue, a Drug Candidate for Retinal Neurodegenerations” (ChemistryOpen, 2023):
≈ marks a conversion by molar mass, not a printed value.

Columns and labels:
Type in all cases: physicochemical
[1] = Phase solubility in deionized water (HPLC); details: for pH of mixture: aqueous solubility measurements; for solubility at 24 h: deionized water, thermodynamic from solid
Method: (§1) The pH‐solubility profile of cGMPSA salts and free acid was determined by phase solubility techniques.[18] Briefly, saturated mixtures of the compound were prepared by adding excess amount to 4 mL vials containing 2 mL deionized water, an acidic buffer (0.1 M HCl(aq), pH 1), or a basic buffer (0.1 M NaOH(aq), pH 13). They were allowed to equilibrate for 24 h using mild agitation before recording the pH. The clear solution was separated from the solids by filtration with a Cytiva Whatman™ Mini‐Uniprep™ polypropylene 0.45 μm filter device and diluted to an appropriate analytical concentration where needed. The sample was then analyzed by HPLC, and the solubility determined by integrating the area of the peak of interest against a standard curve. The solids were also analyzed by XRPD to record the crystal modification obtained.

[2] = Dynamic vapor sorption (DVS), water sorption as Δm; details: for Water sorption Δm: 25 °C; for Δm after desorption: equilibrated value after desorption cycles; for change in mass (Δm): at 95 % relative humidity (maximum RH), stated in text
Method: The samples were analyzed at 25 °C with a Surface Measurements Systems DVS Advantage. A sample was weighted into a weighing pan and its mass was monitored while it was exposed to different relative humidities (%RH=%P/P0). Before the analysis, the weighing pan was subject to an antistatic program.
The analysis program consisted of two cycles. In each cycle, the relative humidity was increased stepwise up to 95 % RH (starting from 0 % RH, 9 steps with 10 % and one step with 5 %) and then decreased stepwise to 0 % RH again. In both sorption/desorption cycles, at each step, the sample was kept at the set relative humidity until dm/dt <0.002 %, over 15 min.

[3] = Thermal analysis (DSC/TGA), decomposition; details: DSC 25 to 300 °C, 10 °C/min
Method: Differential scanning calorimetry (DSC) analyses were carried out on a Mettler DSC822e, equipped with a Thermo Haake EK45/MT cooler. The samples were weighed into a 40 μL Al‐cup, which were then closed with a pierced lid. The sample was scanned from 25 to 300 °C, with a scan rate of 10 °C/min.
Thermogravimetric analysis (TGA) was performed on a Mettler TGA/SDTA 851e, equipped with a Haake C50P cooler. Alternatively, thermogravimetric and DSC analyses were carried out simultaneously in a Mettler Toledo TGA/DSC 3+. The samples were weighed into a 100 μL Al‐cup and this was flushed with dry nitrogen gas during the analysis. The sample was scanned from 25 to 300 °C, with a scan rate of 10 °C/min.

[4] = pH-dependent solubility in basic buffer NaOH(aq); details: 0.1 M NaOH(aq) basic buffer, aqueous buffer, thermodynamic from solid, pH 13, read-out: Solubility in 0.1M NaOH(aq), mg / mL (SD)
Method: as §1

[5] = Polymorph screen, approximate solubility in solvents (UHPLC); details: thermodynamic from solid
Method: A polymorph screen was done for cGMPSA‐TEA with a similar approach. An excess of the compound was slurried in a range of solvents, typically 20–40 mg in 1 mL. For screens where enough solid material was obtained, it was analyzed by XRPD to record the crystal modification.

[6] = pH-dependent solubility in acidic buffer 0.1 M HCl(aq); details: 0.1 M HCl(aq) acidic buffer, simulated gastric fluid, thermodynamic from solid, pH 1, read-out: Solubility in 0.1M HCl(aq), µg / mL (SD)
Method: as §1

[7] = 0 % RH, after final desorption cycle 2 (D2)
[8] = 30 % RH, desorption cycle 2 (D2)
[9] = 60 % RH, desorption cycle 2 (D2)
[10] = 95 % RH, desorption cycle 2 (D2)

**Q.** Which pH of mixture ([1]; supplement) does the source give for `N.O=c1c2nc(Br)n([C@@H]3O[C@@H]4COP(=O)(S)O[C@H]4[C@H]3O)c2nc2[nH]c(-c3ccccc3)cn12` (some centres unmarked) [cGMPSA‐NH4] here?
**A.** The pH of mixture was 3,16.

**Q.** What about the “pH at saturation solubility” value ([1]; deionized H2O, quadruplicates) of the same compound?
**A.** The value was 3.2 (±0.1).

**Q.** And the solubility ([1]; deionized H2O, quadruplicates)?
**A.** Its solubility is 7.9 (±8.0) mg/mL.

**Q.** With `O=c1c2nc(Br)n([C@@H]3O[C@@H]4COP(=O)([S-])O[C@H]4[C@H]3O)c2nc2[nH]c(-c3ccccc3)cn12.[Na+]` (some centres unmarked) [cGMPSA‐Na] as the compound, how does the “Water sorption Δm” value [2, 7] read?
**A.** Its value is −0.3%.

**Q.** What about the “Water sorption Δm” value [2, 8] of the same compound?
**A.** The value was 6.3%.

**Q.** What about the “Water sorption Δm” value ([2]; 30 % RH, sorption cycle 1 (S1)) of the same compound?
**A.** The value was 2.2%.

**Q.** And the “Water sorption Δm” value [2, 9]?
**A.** The value was 12.5%.

**Q.** What about the “Water sorption Δm” value ([2]; 60 % RH, sorption cycle 1 (S1)) of the same compound?
**A.** Its value is 8.1%.

**Q.** And the “Water sorption Δm” value [2, 10]?
**A.** Its value is 15.1%.

**Q.** What about the “Water sorption Δm” value ([2]; 95 % RH, sorption cycle 1 (S1)) of the same compound?
**A.** The value was 15.1%.

**Q.** What about the Δm after desorption ([2]; 0 % RH) of the same compound?
**A.** Its Δm after desorption is ~ 0.

**Q.** What about the “Onset of decomposition (DSC exotherm)” value [3] of the same compound?
**A.** Its value is 212 °C.

**Q.** What about the pH of mixture ([1]; supplement) of the same compound?
**A.** Its pH of mixture is 5,45.

**Q.** What about the “pH at saturation solubility” value ([1]; deionized H2O, quadruplicates) of the same compound?
**A.** The value was 5.5 (±0.2).

**Q.** And the solubility ([1]; deionized H2O, quadruplicates)?
**A.** Its solubility is 38.4 (±11.1) mg/mL.

**Q.** What about the solubility ([1]; deionized H2O, quadruplicates, listed as sodium) of the same compound?
**A.** The solubility was 38 mg/mL.

**Q.** And the solubility ([1]; deionized H2O, quadruplicates, listed as ‐Na)?
**A.** Its solubility is “approximately 40 mg/mL”.

**Q.** For `O=c1c2nc(Br)n(C3OC4COP(O)(=S)OC4C3O)c2nc2[nH]c(-c3ccccc3)cn12` (centres unmarked) [cGMPSA‐TEA], which “Water sorption Δm” value [2, 7] is on record?
**A.** Its value is −1.0%.

**Q.** What about the “Water sorption Δm” value [2, 8] of the same compound?
**A.** The value was 3.5%.

**Q.** What about the “Water sorption Δm” value ([2]; 30 % RH, sorption cycle 1 (S1)) of the same compound?
**A.** The value was 3.4%.

**Q.** And the “Water sorption Δm” value [2, 9]?
**A.** Its value is 4.8%.

**Q.** What about the “Water sorption Δm” value ([2]; 60 % RH, sorption cycle 1 (S1)) of the same compound?
**A.** The value was 4.0%.

**Q.** And the “Water sorption Δm” value [2, 10]?
**A.** Its value is 5.2%.

**Q.** And the “Water sorption Δm” value ([2]; 95 % RH, sorption cycle 1 (S1))?
**A.** Its value is 5.0%.

**Q.** And the “change in mass (Δm)” value [2]?
**A.** Its value is “about 5%”.

**Q.** What about the solubility at 24 h [4] of the same compound?
**A.** Its solubility at 24 h is 51600 µg/mL (≈ 95500 µM).

**Q.** And the pH of mixture ([1]; supplement)?
**A.** The pH of mixture was 4,38.

**Q.** What about the “pH at saturation solubility” value ([1]; deionized H2O, quadruplicates) of the same compound?
**A.** The value was 4.4 (±0.4).

**Q.** What about the solubility at 24 h ([1]; pH 4.38, water, supplement, read-out: Aqueous solubility measurements) of the same compound?
**A.** Its solubility at 24 h is 8900 µg/mL (≈ 16500 µM).

**Q.** And the solubility at 24 h ([1]; pH 4.4, water, deionized H2O, quadruplicates, read-out: Solubility)?
**A.** Its solubility at 24 h is 8800 µg/mL (≈ 16300 µM).

**Q.** And the solubility ([5]; aqueous with cosolvent or surfactant or cyclodextrin, solvent EtOH+H2O 1 : 1 v/v, solution)?
**A.** Its solubility is over 40000 µg/mL.

**Q.** And the solubility ([5]; aqueous with cosolvent or surfactant or cyclodextrin, solvent MeCN+H2O 1 : 1 v/v, solution)?
**A.** The solubility was over 40000 µg/mL.

**Q.** And the solubility ([5]; aqueous with cosolvent or surfactant or cyclodextrin, solvent MeOH+H2O 1 : 1 v/v, solution)?
**A.** The solubility was over 40000 µg/mL.

**Q.** What about the solubility ([5]; aqueous with cosolvent or surfactant or cyclodextrin, solvent THF+H2O 1 : 1 v/v, solution) of the same compound?
**A.** The solubility was over 40000 µg/mL.

**Q.** And the solubility ([5]; organic solvent or mixture, solvent 2‐PrOH)?
**A.** Its solubility is 105 µg/mL (≈ 194 µM).

**Q.** What about the solubility ([5]; organic solvent or mixture, solvent Acetone) of the same compound?
**A.** The solubility was 285 µg/mL (≈ 527 µM).

**Q.** And the solubility ([5]; organic solvent or mixture, solvent DMF, solution)?
**A.** Its solubility is over 40000 µg/mL.

**Q.** What about the solubility ([5]; organic solvent or mixture, solvent DMSO, solution) of the same compound?
**A.** The solubility was over 40000 µg/mL.

**Q.** What about the solubility ([5]; organic solvent or mixture, solvent Dichloromethane) of the same compound?
**A.** Its solubility is 30 µg/mL (≈ 55.5 µM).

**Q.** What about the solubility ([5]; organic solvent or mixture, solvent Diethyl ether) of the same compound?
**A.** The solubility was 3 µg/mL (≈ 5.55 µM).

**Q.** And the solubility ([5]; organic solvent or mixture, solvent Dimethoxyethane)?
**A.** Its solubility is 15 µg/mL (≈ 27.8 µM).

**Q.** And the solubility ([5]; organic solvent or mixture, solvent Dioxane)?
**A.** Its solubility is 30 µg/mL (≈ 55.5 µM).

**Q.** And the solubility ([5]; organic solvent or mixture, solvent EtOAc)?
**A.** Its solubility is 5 µg/mL (≈ 9.25 µM).

**Q.** What about the solubility ([5]; organic solvent or mixture, solvent EtOH) of the same compound?
**A.** Its solubility is 1610 µg/mL (≈ 2980 µM).

**Q.** What about the solubility ([5]; organic solvent or mixture, solvent EtOH+THF 1 : 1 v/v, solution) of the same compound?
**A.** Its solubility is over 40000 µg/mL.

**Q.** What about the solubility ([5]; organic solvent or mixture, solvent MeCN) of the same compound?
**A.** Its solubility is 114 µg/mL (≈ 211 µM).

**Q.** And the solubility ([5]; organic solvent or mixture, solvent MeOH)?
**A.** The solubility was 40 µg/mL (≈ 74 µM).

**Q.** What about the solubility ([5]; organic solvent or mixture, solvent MeTHF) of the same compound?
**A.** Its solubility is 10 µg/mL (≈ 18.5 µM).

**Q.** And the solubility ([5]; organic solvent or mixture, solvent THF)?
**A.** Its solubility is 28 µg/mL (≈ 51.8 µM).

**Q.** And the solubility ([5]; organic solvent or mixture, solvent i‐PrOAc)?
**A.** Its solubility is 10 µg/mL (≈ 18.5 µM).

**Q.** What about the solubility ([5]; organic solvent or mixture, solvent n‐BuOH) of the same compound?
**A.** The solubility was 210 µg/mL (≈ 389 µM).

**Q.** And the solubility at 24 h [6]?
**A.** The solubility at 24 h was 5 µg/mL (≈ 9.25 µM).

**Q.** Which “Water sorption Δm” value [2, 7] does the source give for `NC(CO)(CO)CO.O=c1c2nc(Br)n([C@@H]3O[C@@H]4CO[P@@](O)(=S)O[C@H]4[C@H]3O)c2nc2[nH]c(-c3ccccc3)cn12` [cGMPSA‐Tris, Tris(hydroxymethyl)aminomethane RP-8-Bromo-β-phenyl-1,N2-ethenoguanosine-3′,5′-cyclicmonophosphorothiotic acid] here?
**A.** Its value is 3.3%.

**Q.** What about the “Water sorption Δm” value [2, 8] of the same compound?
**A.** Its value is 5.5%.

**Q.** And the “Water sorption Δm” value ([2]; 30 % RH, sorption cycle 1 (S1))?
**A.** The value was 4.9%.

**Q.** And the “Water sorption Δm” value [2, 9]?
**A.** Its value is 6.8%.

**Q.** And the “Water sorption Δm” value ([2]; 60 % RH, sorption cycle 1 (S1))?
**A.** Its value is 6.0%.

**Q.** And the “Water sorption Δm” value [2, 10]?
**A.** Its value is 32.4%.

**Q.** What about the “Water sorption Δm” value ([2]; 95 % RH, sorption cycle 1 (S1)) of the same compound?
**A.** Its value is 32.8%.

**Q.** What about the “Observed Δm” value ([2]; DVS step compared to theoretical hydrate mass change) of the same compound?
**A.** The value was 3.3%.

**Q.** What about the “Stable %RH range” value ([2]; RH range of the corresponding hydrate step on DVS) of the same compound?
**A.** Its value is 0–70 %RH.

**Q.** What about the “change in mass (Δm)” value [2] of the same compound?
**A.** Its value is 32%.

**Q.** And the “initial early sorption Δm” value ([2]; consistent with 1 equivalent of H2O)?
**A.** The value was about 3%.

**Q.** And the Δm after desorption ([2]; 0 % RH)?
**A.** The Δm after desorption was 3.3.

**Q.** And the pH of mixture ([1]; supplement)?
**A.** The pH of mixture was 8,45.

**Q.** And the “pH at saturation solubility” value ([1]; deionized H2O, quadruplicates)?
**A.** Its value is 8.5 (±0.1).

**Q.** And the solubility ([1]; deionized H2O, quadruplicates)?
**A.** The solubility was 13.5 (±3.5) mg/mL.

**Q.** What about the solubility ([1]; deionized H2O, quadruplicates, listed as ‐Tris) of the same compound?
**A.** The solubility was about 15 mg/mL.
